The values below come from patent US20240327359A1, “3-ISOXAZOLIDINONE COMPOUND, PREPARATION METHOD, HERBICIDAL COMPOSITION AND APPLICATION THEREOF” (QINGDAO KINGAGROOT CHEMICAL COMPOUND CO., LTD., priority 2021, published 2024).

What all share (format): in vivo
One experiment has as its system Abutilon theophrasti. As to the kind of experiment: Weeding effect in post-emergence stage. The conditions noted are these: 720 g a.i./ha, 3 weeks after application. From the text:
(§1) The activity level criteria for plant damage (i.e., growth control rate) are as follows:
(§2) The above growth control rates are fresh weight control rates.
(§3) Monocotyledonous and dicotyledonous weed seeds (Descurainia sophia, Capsella bursa-pastoris, Abutilon theophrasti, Galium aparine, Stellaria media, Lithospermum arvense, Rorippa indica, Alopecurus aequalis, Alopecurus japonicus, Eleusine indica, Beckmannia syzigachne, Sclerochloa dura, Phleum paniculatum, Veronica didyma, Bromus japonicus, Aegilops tauschii, Phalaris arundinacea, Amaranthus retroflexus, Chenopodiaceae, Commelina communis, Sonchus arvensis, Convolvulus arvensis, Cirsium setosum, Solanumnigrum, Acalypha australis, Digitaria sanguinalis, Echinochloa crusgalli, Setaria viridis, Setaria glauca, Leptochloa chinensis, Monochoria vaginalis, Sagittaria trifolia, Scirpus juncoides, Cyperus rotundus, Cyperus iria, Cyperus difformis, Fimbristylis, Portulaca oleracea, Xanthium sibiricum, Pharbitis nil, Conyza Canadensis, etc.) and major crop seeds (wheat, corn, rice, soybean, cotton, oilseed rape, millet, sorghum, potato, sesame, ricinus, etc.) were placed in plastic pots filled with soil, then covered with 0.5-2 cm of soil, allowed to grow in a good greenhouse environment. Two weeks after sowing, the test plants were treated in the 2-3 leaf stage. The tested compounds of the present invention were respectively dissolved in acetone, then added with Tween 80 and 1.5 liter/ha of emulsifiable concentrate of methyl oleate as synergist, diluted with a certain amount of water to obtain a solution of a certain concentration, and sprayed by a spray tower onto the plants. After the application, the plants were cultured for 3 weeks in the greenhouse, and then the experimental results of the weeding were recorded. The doses of the used compounds were 45, 90, 180, 360, 720 g a.i./ha, and the averages were obtained from three replicates.

A further experiment relates to Alopecurus japonicus. The experiment can be described thus: Weeding effect in post-emergence stage. To be noted: 720 g a.i./ha, 3 weeks after application.
Description: as §1, §2, §3

The next experiment concerns Digitaria sanguinalis. The experiment can be described thus: Weeding effect in post-emergence stage. To be noted: 720 g a.i./ha, 3 weeks after application.
Description: as §1, §2, §3

The test system of a further experiment is Leptochloa chinensis. The experiment can be described thus: Weeding effect in post-emergence stage. The conditions noted are these: 720 g a.i./ha, 3 weeks after application.
Description: as §1, §2, §3

In experiment [1] the test system is Echinochloa crusgalli, Leptochloa chinensis, Digitaria sanguinalis, Descurainia Sophia, Capsella bursa-pastoris, Galium aparine, Stellaria media, Lolium …. As to the kind of experiment: Field test, weed control. To be noted: applied after planting and pre-emergence at 300 g a.i./ha.
For a further experiment, the system named is Amaranthus retroflexus. As to the kind of experiment: Activity test of the compositions, post-emergence treatment by foliage spray. The conditions noted are these: foliage (F).
For experiment [2], the system named is Echinochloa crus-galli var. zelayensis. The experiment is described as above. The conditions noted are these: Echinochloa crusgalli var. zelayensis; foliage (F); A 16 g a.i./mu.
For another experiment, the system named is Echinochloa crusgalli. Described as above. To be noted: foliage (F), A 16 g a.i./mu.
Another experiment relates to weeds. The experiment can be described thus: Activity test of the compositions, soil sealing treatment. In outline: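 Pre-emergence soil spray at 450 kg/ha, 0.3 MPa, applied 72 h after sowing pre-germinated seeds, 20 seeds per pot, 4 pots, 4 repeats; actives in acetone diluted with 0.10% Tween-80. Greenhouse, 20 to 30° C; surviving weed fresh weight measured 21 days after treatment.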

Regarding `CC1(C)CON(Cc2ccc(Cl)cc2Br)C1=O` [Compound 1], the “weeding effect in post-emergence stage, activity level (growth control rate)” value is 5 (Level 5: growth control rate is greater than or equal to 85%) in the experiment on Abutilon theophrasti; 4 (Level 4: growth control rate is greater than or equal to 60% and less than 85%) in the experiment on Alopecurus japonicus; 5 (Level 5: growth control rate is greater than or equal to 85%) in the experiment on Digitaria sanguinalis; 5 (Level 5: growth control rate is greater than or equal to 85%) in the experiment on Leptochloa chinensis. Moreover, in [1], the “control of major weeds in field test” value is “effectively controls”. In addition, the “Control effect (%) of A applied alone (A)” value (“Control effect (%)” for short) was determined as 36.7% with Amaranthus retroflexus (A 8 g a.i./mu); 36.7% in the experiment on Amaranthus retroflexus (A 16 g a.i./mu); 43.6% in experiment [2]; 46.2% in the experiment on Echinochloa crusgalli; 39.4% in the experiment on weeds (Alopecurus japonicus, soil (S), A 8 g a.i./mu); 37.3% in the experiment with weeds (Amaranthus retroflexus, soil (S), A 8 g a.i./mu). In addition, the “Control effect (%)” value in the experiment with weeds (Commelina communis, soil (S), A 8 g a.i./mu) turned out to be 44.1%; in the experiment on weeds (Cyperus difformis, soil (S), A 8 g a.i./mu) it was 34.5%; in the experiment on weeds (Digitaria sanguinalis, soil (S), A 8 g a.i./mu), 40.3%; in the experiment with weeds (Echinochloa crusgalli, soil (S), A 8 g a.i./mu), 50.7%; in the experiment on weeds (Echinochloa crusgalli, soil treatment (S), A at 8 g a.i./mu, fresh weight inhibition 21 days after treatment), 50.7%; in the experiment on weeds (Galium aparine, soil (S), A 8 g a.i./mu), 37.2%. Moreover, the “Control effect (%)” value in the experiment with weeds (Lolium multiflorum, soil (S), A 8 g a.i./mu) is recorded as 53.2%; in the experiment with weeds (Potamogeton distinctus, soil (S), A 8 g a.i./mu), 35.9%; in the experiment with weeds (Veronica didyma, soil (S), A 8 g a.i./mu), 48.9%.
